Measurements as given in patent US20170151192A1, “METHODS, COMPOSITIONS AND DEVICES FOR TREATMENT OF MOTOR AND DEPRESSION SYMPTOMS ASSOCIATED WITH PARKINSON'S DISEASE” (N TO B LTD., priority 2013, published 2017).
Like-named read-outs stand apart in the source and are kept apart here.

Experiments:
[1] = molecular target: T1, MAO-A (Rattus norvegicus, UniProt P21396); details: 0.3 mg/kg, 1 hour after treatment
Text: (§1) Adult (3-month old) male Sprague Dawley rats, weighing about 250 grams, were from Harlan Laboratories, Inc Israel.

[2] = molecular target: T2, MAO-B (Rattus norvegicus, UniProt P19643); details: 0.1 and 0.3 mg/kg, 1 hour after treatment
Text: as §1

[3] = molecular target: T1, MAO-A; assay: in vivo; details: for inhibition at 6 mg/kg / inhibition at 0.6 mg/kg / inhibition at 1.5 mg/kg: rat, inhaled or nasal
Method: (§2) Control liquid formulations included vehicle only.
(§3) The animals were acutely administered intranasally and sacrificed 4 hours following drug/vehicle administration. The brain regions, hippocampus and striatum, as well as the small intestine were dissected out. […] In brief, samples were dissected out at 4° C. and homogenized. Homogenates were incubated with [C^14]serotonin for 30 minutes (final concentration 100 μM) as a substrate for MAO-A, or with [C^14]phenylethylamine for 20 minutes (final concentration 100 μM) as a substrate for MAO-B. The radioactivity was determined by liquid- scintillation.

[4] = molecular target: T2, MAO-B; assay: in vivo
Method: as §2, §3

[5] = molecular target: T1, MAO-A
Method: (§4) The animals were acutely administered and sacrificed 4 hours following drug/vehicle administration. The brain regions, hippocampus and striatum, as well as the small intestine were dissected out. All tissues were frozen at −80° C. for further analysis.

[6] = molecular target: T2, MAO-B; details: both regimens (intranasal and oral), 0.24 and 0.6 mg/Kg, p<0.05, data not shown
Method: as §4

[7] = test system: pressor responses to oral tyramine; details: rats, cited from earlier work
[8] = extensive first pass hepatic metabolism; cited from earlier work

T1 sequence (P21396 whole entry): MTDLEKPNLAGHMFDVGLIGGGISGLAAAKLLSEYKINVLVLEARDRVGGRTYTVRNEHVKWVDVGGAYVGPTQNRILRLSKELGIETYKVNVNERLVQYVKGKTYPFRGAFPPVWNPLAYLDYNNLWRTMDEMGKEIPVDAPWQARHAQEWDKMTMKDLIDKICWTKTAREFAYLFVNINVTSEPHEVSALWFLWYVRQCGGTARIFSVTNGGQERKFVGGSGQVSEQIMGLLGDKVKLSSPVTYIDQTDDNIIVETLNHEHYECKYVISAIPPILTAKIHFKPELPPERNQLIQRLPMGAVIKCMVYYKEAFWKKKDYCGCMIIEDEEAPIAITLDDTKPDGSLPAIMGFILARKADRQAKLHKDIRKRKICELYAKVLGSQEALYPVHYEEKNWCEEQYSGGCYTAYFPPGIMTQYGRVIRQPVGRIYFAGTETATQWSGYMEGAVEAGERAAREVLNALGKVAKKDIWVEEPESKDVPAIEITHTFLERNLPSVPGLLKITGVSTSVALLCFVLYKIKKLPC
T2 sequence (P19643 whole entry): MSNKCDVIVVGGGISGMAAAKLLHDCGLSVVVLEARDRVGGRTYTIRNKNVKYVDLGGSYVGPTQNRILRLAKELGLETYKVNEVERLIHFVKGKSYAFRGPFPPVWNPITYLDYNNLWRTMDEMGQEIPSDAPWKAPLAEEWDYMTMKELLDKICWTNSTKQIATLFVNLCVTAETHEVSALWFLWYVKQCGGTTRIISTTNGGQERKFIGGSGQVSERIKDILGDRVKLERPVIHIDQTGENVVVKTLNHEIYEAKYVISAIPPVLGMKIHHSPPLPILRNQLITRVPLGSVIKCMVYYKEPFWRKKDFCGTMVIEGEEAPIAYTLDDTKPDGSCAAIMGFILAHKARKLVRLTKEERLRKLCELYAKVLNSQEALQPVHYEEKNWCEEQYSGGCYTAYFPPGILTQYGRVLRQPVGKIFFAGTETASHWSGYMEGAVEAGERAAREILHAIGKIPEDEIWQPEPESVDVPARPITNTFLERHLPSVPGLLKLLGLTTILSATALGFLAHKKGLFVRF

Q: What does the source list for `C#CCN[C@@H]1CCc2ccccc21` [Rasagiline, N-propargyl-1-(R)-aminoindan]?
A: brain MAO-A inhibition, NAS delivery compared to IP ([1]; FIG. 1): significantly inhibited; liver MAO-A inhibition, IP compared to NAS delivery ([1]; FIG. 3): significantly inhibited; difference in brain MAO-B inhibition between IP and NAS ([2]; FIG. 2): no significant difference; differences in liver MAO-B inhibition between IP and NAS ([2]; FIG. 4): No significant differences; MAO-A activity in striatum and hippocampus, dose dependence ([3]; intranasal powder formulation, 0.24, 0.6, 1.5 and 6 mg/kg, FIG. 6): dose-dependently inhibited; striatal MAO-A inhibition, powder compared to liquid formulation ([3]; intranasal, 0.6 mg/kg, FIG. 5): significant higher inhibition; inhibition at 6 mg/kg ([3]; read-out: MAO-A inhibition in striatum and hippocampus, intranasal, 6 mg/kg powder formulation): > 90%; inhibition at 0.6 mg/kg ([3]; read-out: MAO-A inhibition, Brain, intranasal, 0.6 mg/kg liquid formulation, 4 h): 33%; inhibition at 0.6 mg/kg ([3]; read-out: MAO-A inhibition, Brain, intranasal, 0.6 mg/kg powder formulation, 4 h): 44%; inhibition at 6 mg/kg ([3]; read-out: MAO-A inhibition, Brain, intranasal, 6 mg/kg liquid formulation, 4 h): 91%; inhibition at 1.5 mg/kg ([3]; read-out: MAO-A inhibition, Hippocampus, intranasal, 1.5 mg/kg powder formulation, 4 h): 86%; inhibition at 0.6 mg/kg ([3]; read-out: MAO-A inhibition, Intestine, intranasal, 0.6 mg/kg liquid formulation, 4 h): 32%; inhibition at 0.6 mg/kg ([3]; read-out: MAO-A inhibition, Intestine, intranasal, 0.6 mg/kg powder formulation, 4 h): 42%; inhibition at 1.5 mg/kg ([3]; read-out: MAO-A inhibition, Intestine, intranasal, 1.5 mg/kg powder formulation, 4 h): 74%; inhibition at 6 mg/kg ([3]; read-out: MAO-A inhibition, Intestine, intranasal, 6 mg/kg liquid formulation, 4 h): 86%; inhibition at 6 mg/kg ([3]; read-out: MAO-A inhibition, Intestine, intranasal, 6 mg/kg powder formulation, 4 h): 92%; inhibition at 0.6 mg/kg ([3]; read-out: MAO-A inhibition, Liver, intranasal, 0.6 mg/kg liquid formulation, 4 h): 19%; inhibition at 0.6 mg/kg ([3]; read-out: MAO-A inhibition, Liver, intranasal, 0.6 mg/kg powder formulation, 4 h): 44%; inhibition at 6 mg/kg ([3]; read-out: MAO-A inhibition, Liver, intranasal, 6 mg/kg liquid formulation, 4 h): 83%; inhibition at 0.6 mg/kg ([3]; read-out: MAO-A inhibition, Striatum, intranasal, 0.6 mg/kg powder formulation, 4 h): 61%; inhibition at 6 mg/kg ([3]; read-out: MAO-A inhibition, Striatum, intranasal, 6 mg/kg powder formulation, 4 h): 98%; MAO-B activity inhibition in striatum and hippocampus ([4]; intranasal, 0.24 to 6 mg/kg, both powder and liquid formulations, p<0.05 vs vehicle): about 98%; inhibition at 0.6 mg/kg ([4]; rat, inhaled or nasal, read-out: MAO-B Inhibition, Intestine, intranasal, 0.6 mg/kg liquid formulation, 4 h): 63%; inhibition at 0.6 mg/kg ([4]; rat, inhaled or nasal, read-out: MAO-B Inhibition, Intestine, intranasal, 0.6 mg/kg powder formulation, 4 h): 68%; inhibition at 1.5 mg/kg ([4]; rat, inhaled or nasal, read-out: MAO-B Inhibition, Intestine, intranasal, 1.5 mg/kg powder formulation, 4 h): 72%; inhibition at 6 mg/kg ([4]; rat, inhaled or nasal, read-out: MAO-B Inhibition, Intestine, intranasal, 6 mg/kg liquid formulation, 4 h): 75%; inhibition at 6 mg/kg ([4]; rat, inhaled or nasal, read-out: MAO-B Inhibition, Intestine, intranasal, 6 mg/kg powder formulation, 4 h): 78%; MAO-A inhibition in striatum and hippocampus, intranasal (powder) compared to oral ([5]; 0.24 and 0.6 mg/Kg, 4 h, FIGS. 8A-B): significantly increased; MAO-A inhibition in the periphery (small intestine), intranasal compared to P.O. ([5]; 0.24 and 0.6 mg/kg, FIG. 9): significantly lower; MAO-B activity inhibition in striatum and hippocampus [6]: about 99%; cheese reaction (MAO-A and MAO-B both inhibited) ([7]; 10 mg/kg oral dose): induces the “cheese reaction”; potentiation of pressor responses to oral tyramine ([7]; 21 days chronic treatment, oral doses up to 2 mg/kg daily): does not potentiate; potentiation of pressor responses to oral tyramine ([7]; single oral doses up to 5 mg/kg): does not potentiate

Q: With `C#CCN(C)[C@H](C)Cc1ccccc1` [Selegiline, (R)-N-methyl-N-(1-phenylpropan-2-yl)prop-1-yn-3-amine] as the compound, how does the oral bioavailability [8] read?
A: 4-10%
